Experiments:
Experiment in all cases: relative viability (nuclei count vs DMSO), 5 days (fraction); higher = more cells survive
[1] = compound: C1=CC2=NC=CN=C2C=C1/C=C/3\C(=O)NC(=O)S3 + Cc1nc(Nc2ncc(C(=O)Nc3c(C)cccc3Cl)s2)cc(N2CCN(CCO)CC2)n1 [Dasatinib] (partner 0.075 µM)
Outline: (§1)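 Relative viability was taken as the ratio of nuclei in treated wells to nuclei in vehicle wells. Lung cancer cell lines in 1536-well plates received compounds by pin tool one day after seeding, either one drug alone or a fixed anchor-drug dose plus five library-drug doses (not always all listed) in √10 steps. Nuclei were counted on 4× images after 5 days of treatment, and values are medians of duplicate plates.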

BGJ398 + Trametinib = compound: CCN1CCN(c2ccc(Nc3cc(N(C)C(=O)Nc4c(Cl)c(OC)cc(OC)c4Cl)ncn3)cc2)CC1 [BGJ398] + CC(=O)Nc1cccc(-n2c(=O)n(C3CC3)c(=O)c3c(Nc4ccc(I)cc4F)n(C)c(=O)c(C)c32)c1 [Trametinib] (partner 0.02 µM)
Outline: as §1

BGJ398 + Foretinib = compound: CCN1CCN(c2ccc(Nc3cc(N(C)C(=O)Nc4c(Cl)c(OC)cc(OC)c4Cl)ncn3)cc2)CC1 [BGJ398] + COc1cc2c(Oc3ccc(NC(=O)C4(C(=O)Nc5ccc(F)cc5)CC4)cc3F)ccnc2cc1OCCCN1CCOCC1 [Foretinib] (partner 0.25 µM)
Outline: as §1

BGJ398 + Pictilisib = compound: CCN1CCN(c2ccc(Nc3cc(N(C)C(=O)Nc4c(Cl)c(OC)cc(OC)c4Cl)ncn3)cc2)CC1 [BGJ398] + CS(=O)(=O)N1CCN(Cc2cc3nc(-c4cccc5[nH]ncc45)nc(N4CCOCC4)c3s2)CC1 [Pictilisib] (partner 1 µM)
Outline: as §1

Cell Line	relative viability ([1]; first compound 0.02 µM)	relative viability ([1]; first compound 0.06325 µM)	relative viability ([1]; first compound 0.2 µM)	relative viability ([1]; first compound 0.6325 µM)	relative viability ([1]; first compound 2 µM)	relative viability (BGJ398 + Trametinib; first compound 0.01 µM)	relative viability (BGJ398 + Trametinib; first compound 0.03162 µM)	relative viability (BGJ398 + Trametinib; first compound 0.1 µM)	relative viability (BGJ398 + Trametinib; first compound 0.3162 µM)	relative viability (BGJ398 + Trametinib; first compound 1 µM)	relative viability (BGJ398 + Foretinib; first compound 0.01 µM)	relative viability (BGJ398 + Foretinib; first compound 0.03162 µM)	relative viability (BGJ398 + Foretinib; first compound 0.1 µM)	relative viability (BGJ398 + Foretinib; first compound 0.3162 µM)	relative viability (BGJ398 + Foretinib; first compound 1 µM)	relative viability (BGJ398 + Pictilisib; first compound 0.01 µM)	relative viability (BGJ398 + Pictilisib; first compound 0.03162 µM)	relative viability (BGJ398 + Pictilisib; first compound 0.1 µM)	relative viability (BGJ398 + Pictilisib; first compound 0.3162 µM)	relative viability (BGJ398 + Pictilisib; first compound 1 µM)
NCI-H3122	0.8	0.953	0.747	0.816	0.701	0.204	0.223	0.245	0.19	0.264	1.01	0.973	0.963	0.89	0.971	0.609	0.652	0.625	0.678	0.582
NCI-H460	0.53	0.782	0.477	0.362	0.0894	0.0671	0.131	0.209	0.13	0.0628	0.999	0.994	1.08	1.06	1.04	0.343	0.435	0.393	0.408	0.343
NCI-H650	0.524	0.468	0.561	0.415	0.286	0.927	1.04	1.08	0.963	0.959	0.983	1.06	1.06	1.04	0.928	0.87	0.943	0.867	0.858	0.868
NCI-H661	1.03	1.12	0.935	0.748	0.722	0.479	0.599	0.642	0.516	0.63	0.889	1.06	1.14	0.932	0.982	0.361	0.46	0.388	0.382	0.348
NCI-H1793	0.407	0.39	0.368	0.354	0.328	0.442	0.311	0.273	0.305	0.312	0.725	0.579	0.557	0.725	0.666	0.296	–	0.265	0.203	0.196
NCI-H1734	0.463	0.468	0.467	0.41	0.269	0.591	0.657	0.54	0.42	0.381	0.862	0.879	0.893	0.785	0.827	0.421	0.493	0.451	0.407	0.476
LXF-289	0.192	0.176	0.254	0.215	0.0852	0.567	0.649	0.672	0.563	0.593	0.901	0.901	0.881	0.873	0.871	0.773	0.707	0.682	0.685	0.573
H3255	0.365	0.329	0.348	0.379	0.38	0.61	–	0.702	–	0.707	0.985	–	0.961	0.386	0.878	0.484	0.138	0.462	0.344	0.506

Source: the supplement of paper PMC10307832
